Experimental data: ChEMBL document CHEMBL1201862, “PubChem BioAssay data set” (2004)
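Briefly, cells in 96-well plates were exposed to five compound concentrations for 48 h, and endpoints were estimated by linear interpolation. GI50: concentration for 50% inhibition of growth.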 Calls of active or inactive are those of the source. Rule as the data show it: active = GI50 up to about 1.1 µM and inactive = higher.

Columns and labels:
Assay in all cases: inhibition of tumour cell growth, NCI panel, 48 h
HL-60 = test system: HL-60
SW-620 = test system: SW-620
IGROV-1 = test system: IGROV-1
SF-539 = test system: SF-539
CCRF-CEM = test system: CCRF-CEM
UACC-257 = test system: UACC-257
OVCAR-5 = test system: OVCAR-5
HOP-62 = test system: HOP-62
MDA-MB-231 = test system: MDA-MB-231
HOP-92 = test system: HOP-92
786-0 = test system: 786-0
U-251 = test system: U-251
A498 = test system: A498
UO-31 = test system: UO-31
NCI-H460 = test system: NCI-H460
NCI-H23 = test system: NCI-H23
K562 = test system: K562
MOLT-4 = test system: MOLT-4
HCC 2998 = test system: HCC 2998
CAKI-1 = test system: CAKI-1

| SMILES | GI50 (HL-60) | GI50 (SW-620) | GI50 (IGROV-1) | GI50 (SF-539) | GI50 (CCRF-CEM) | GI50 (UACC-257) | GI50 (OVCAR-5) | GI50 (HOP-62) | GI50 (MDA-MB-231) | GI50 (HOP-92) | GI50 (786-0) | GI50 (U-251) | GI50 (A498) | GI50 (UO-31) | GI50 (NCI-H460) | GI50 (NCI-H23) | GI50 (K562) | GI50 (MOLT-4) | GI50 (HCC 2998) | GI50 (CAKI-1) |
| --- | --- | --- | --- | --- | --- | --- | --- | --- | --- | --- | --- | --- | --- | --- | --- | --- | --- | --- | --- | --- |
| O=C1/C(=C/c2ccccc2)CN(C(=O)CCN2CCCC2)C/C1=C\c1ccccc1 | 0.298 µM (active) | 0.23 µM (active) | 2.67 µM (inactive) | 1.85 µM (inactive) | 0.286 µM (active) | 2.45 µM (inactive) | 3.16 µM (inactive) | 7.31 µM (inactive) | 1.51 µM (inactive) | 4.44 µM (inactive) | 0.895 µM (active) | 0.794 µM (active) | 4.17 µM (inactive) | 2.77 µM (inactive) | 1.77 µM (inactive) | 1.8 µM (inactive) | 0.287 µM (active) | 0.356 µM (active) | 1.77 µM (inactive) | 3.98 µM (inactive) |
| NCCC1([N+](=O)[O-])CCNCC1 | > 100 µM (inactive) | > 100 µM (inactive) | > 100 µM (inactive) | > 100 µM (inactive) | > 100 µM (inactive) | > 100 µM (inactive) | > 100 µM (inactive) | > 100 µM (inactive) | > 100 µM (inactive) | > 100 µM (inactive) | > 100 µM (inactive) | > 100 µM (inactive) | > 100 µM (inactive) | > 100 µM (inactive) | > 100 µM (inactive) | > 100 µM (inactive) | > 100 µM (inactive) | > 100 µM (inactive) | > 100 µM (inactive) | > 100 µM (inactive) |
| C=CCc1oc(C)nc1CCCC | > 100 µM (inactive) | > 100 µM (inactive) | > 100 µM (inactive) | > 100 µM (inactive) | > 100 µM (inactive) | > 100 µM (inactive) | > 100 µM (inactive) | > 100 µM (inactive) | > 100 µM (inactive) | > 100 µM (inactive) | > 100 µM (inactive) | > 100 µM (inactive) | > 100 µM (inactive) | > 100 µM (inactive) | > 100 µM (inactive) | > 100 µM (inactive) | > 100 µM (inactive) | > 100 µM (inactive) | > 100 µM (inactive) | > 100 µM (inactive) |
| CCC(=S)N(C)O | 1.48 µM (inactive) | 4.09 µM (inactive) | 6.93 µM (inactive) | 39.3 µM (inactive) | 0.459 µM (active) | 50.9 µM (inactive) | 45.1 µM (inactive) | 43.5 µM (inactive) | 42.4 µM (inactive) | > 85.9 µM (inactive) | 11.6 µM (inactive) | 23.4 µM (inactive) | 65.9 µM (inactive) | 26.8 µM (inactive) | 10.1 µM (inactive) | 10.1 µM (inactive) | 0.52 µM (active) | 1.88 µM (inactive) | 55.6 µM (inactive) | 81.8 µM (inactive) |
